Data set [1] in a line: SRB cytotoxicity assay, HepG2. The following applies: human, HepG2 cells; HepG2, 48 h, SRB. In kind it is cell-based, human. The text has this: (§1) HEK293 (Human embryonic kidney cell line), HepG2 (Human liver carcinoma cell line), LX-2 (Human hepatic stellate cell line), and 3T3-L1 (Murine preadipocyte cell line) cells were obtained from the American Type Culture Collection (ATCC), Bethesda, MD, USA.

In data set [2] the test system is HepG2 (Human liver carcinoma cell line). The data set is described as follows: SRB cytotoxicity assay, HepG2. In kind it is cell-based.
Description: as §1
On the technique in general: Sulforhodamine B stains cellular protein and so reports cell mass.

Data set [3] can be described thus: SRB cytotoxicity assay, HEK293. The following applies: human, HEK293 cells; HEK293, 48 h, SRB. In kind it is cell-based, human.
Description: as §1

Data set [4] relates to HEK293 (Human embryonic kidney cell line). The data set is described as follows: SRB cytotoxicity assay, HEK293. The data set is classed as cell-based.
Description: as §1

Data set [5] can be described thus: SRB cytotoxicity assay, RAW 264.7. The following applies: mouse. On the procedure:
(§2) The cells were maintained in a 5% CO2 humidified atmosphere (CO2 incubator, Thermo Scientific, Waltham, MA, USA) at 37 °C and sub-cultured every 3 days.
(§3) The cytotoxicity of the oligopeptide and its conjugated forms on HepG2, HEK293, LX-2, and RAW 264.7 cells, pre- and mature 3T3-L1 adipocytes, and hPBMCs was analyzed by a sulforhodamine (SRB) assay to obtain their non-toxic concentration for further experiments and as screening data for their in vitro safety. The cells were plated for 12 h in 96-well plates and then treated with the oligopeptide and its conjugated sugar at a concentration of 0–1000 µg/mL for 48 h. Dimethyl sulfoxide (DMSO) was used as a vehicle control (the untreated control). At the indicated time, the cells were then fixed and subjected to an SRB assay. The absorbance was measured at 510 nm by spectrophotometry (Gen5, BioTek, Winooski, VT, USA), and the cell viability was calculated as the ratio of the treatment versus untreated control. The data are represented as the mean ± standard deviation of three replicates and are expressed relative to the untreated control. The percentage of cell survival was calculated as follows:% cell survival = (Abs_extract/Abs_control) × 100

Data set [6] deals with RAW 264.7 murine macrophage cell line. The data set is described as follows: SRB cytotoxicity assay, RAW 264.7. The following applies: Mus musculus, RAW264.7, 48 h. On the procedure:
as §2, §3

Another data set in a line: Hemolysis assay. In kind it is cell-based, human. The following applies: human, 5% red blood cell suspension; 800 µg/mL, 5% RBCs, 37 °C, 3 h; read-out: % Hemolysis (n = 5). The text has this: As described by Karinchai et al., human peripheral blood mononuclear cells (PBMCs) and red blood cells (RBCs) were isolated from human blood samples [41]. Human blood samples of healthy subjects obtained from Maharaj Hospital, Chiang Mai, Thailand, were anonymized and kept in a heparinized tube by the laboratory. RBCs were collected and used to determined hemolysis induction by a hemolysis assay. Ficoll-Hypaque solution was used to isolate PBMCs, as described in the manufacturer’s instructions. A certificate of exemption by the Research Ethics Committee of the Faculty of Medicine, Chiang Mai University (No. EXEMPTION 8989/2022), was granted. Consent to participate was not applicable as all data were anonymized. All methods were carried out in accordance with relevant guidelines and regulations.
The hemolytic effect of the oligopeptide and its conjugated forms was determined by hemolysis assay. Briefly, the 5% RBCs suspension was mixed with various concentrations of the samples and further incubated at 37 °C for 3 h. The hemolysis induction by the compounds was measured as described previously. The hemolytic effect of each compound was interpreted using the following guidelines: 0–10% hemolysis is non-hemolysis, 10–25% hemolysis is slight hemolysis induction, and >25% hemolysis is high hemolysis induction.

Another data set deals with IL-6. The data set is described as follows: IL-6 secretion by ELISA in LPS-treated RAW 264.7. In kind it is cell-based, murine. The following applies: 100, 200, 400 µg/mL, LPS 1 µg/mL 24 h. On the procedure: RAW 264.7 macrophage cells were pretreated with various concentrations of the oligopeptide and its conjugated forms (100, 200, 400 µg/mL) for an hour and then incubated with LPS (1 µg/mL) for further 24 h at 37 °C in a 5% CO2 humidified atmosphere. Then, a sandwich Enzyme Link Immuno-Sorbent Assay was carried out in accordance with the manufacturer’s protocols (BioLegend ELISA MAXTM Deluxe Set, San Diego, CA, USA) to measure TNF-α or IL-6 protein levels in the condition medium.
For orientation: In an ELISA, binding on a coated surface is turned into a signal by an enzyme label.

Data set [7] relates to Salmonella typhimurium strain TA98. The data set is described as follows: Salmonella mutation assay (Ames test), TA98. In kind it is cell-based. On the procedure: Overnight bacterial cultures were mixed with various doses of test compounds with (+S9) or without (−S9) and incubated at 37 °C for 20 min. The top agar was added and then poured onto a plate of minimal glucose agar. The plates were incubated at 37 °C for 48 h. The number of revertant colonies was counted and the mutagenic index (MI) was calculated. 2-aminoanthracene (2-AA) and 2-(2-furyl)-3-(5-nitro-2-furyl)-acrylamide (AF-2) were used as positive mutagens in the presence and absence of S9.

What is called IC20 is the point of the concentration-response curve where the effect stands at 20%. A high value points to weaker potency. One may read the IC50 as the concentration needed to halve the response being measured. Consider `OC[C@H]1OC(O)[C@@H](O)[C@@H](O)[C@@H]1O` (stereo partly drawn) [Man, D-mannose], for which the IC20 at 48 h in data set [1], in data set [3] and in [5] was over 1000 µg/mL throughout. In addition, the toxicity to cells entry was “not toxic” in [2] (HepG2, up to 1000 µg/mL, 48 h) and “not toxic” in data set [4] (HEK293, up to 1000 µg/mL, 48 h). The IC50 was over 1000 µg/mL in data set [2] (Homo sapiens, HepG2, 48 h, SRB, read-out: IC50); over 1000 µg/mL in [4] (Homo sapiens, HEK293, 48 h, SRB, read-out: IC50); over 1000 µg/mL in data set [6]. Besides, in the data set “Hemolysis assay”, the hemolysis at 3 h, 800 µg/mL is 1.84 ± 0.42%. Also, in the data set on IL-6, the “effect on level of IL-6” value is on record as “did not alter”. Also, the “His^+ Revertant Colonies per Plate” value was determined as 37.7 ± 5.7 in data set [7] (TA98, +S9, 0.04 mg per plate); 37.8 ± 3.8 in data set [7] (TA98, +S9, 0.2 mg per plate); 36.5 ± 7.5 in data set [7] (TA98, +S9, 1 mg per plate); 38.5 ± 7.8 in data set [7] (TA98, +S9, 5 mg per plate); 30.5 ± 2.5 in data set [7] (TA98, −S9, 0.04 mg per plate); 30.8 ± 4.8 in [7] (TA98, −S9, 0.2 mg per plate). Besides, the “His^+ Revertant Colonies per Plate” value in data set [7] (TA98, −S9, 1 mg per plate) is listed as 27.8 ± 6.5; in [7] (TA98, −S9, 5 mg per plate), 28.7 ± 6.0. The mutagenicity entry in data set [7] (TA98, presence and absence of the S9 mix) is given as “did not cause any mutagenicity”.

For the origin of these results see PMC11353420, “Anti-Inflammatory, Cytotoxic, and Genotoxic Effects of Soybean Oligopeptides Conjugated with Mannose” (Foods, 2024).
